The text below walks through data of ChEMBL document CHEMBL1132765, “Synthesis and antibacterial activity of new carbapenems containing isoxazole moiety” (2000).

Molecules are shown by their SMILES. In brackets after ≈: the same amount, converted by molar mass.

In experiment [1] the target is T1, Dipeptidase 1 (Sus scrofa) (UniProt P22412).
T1 sequence (whole entry): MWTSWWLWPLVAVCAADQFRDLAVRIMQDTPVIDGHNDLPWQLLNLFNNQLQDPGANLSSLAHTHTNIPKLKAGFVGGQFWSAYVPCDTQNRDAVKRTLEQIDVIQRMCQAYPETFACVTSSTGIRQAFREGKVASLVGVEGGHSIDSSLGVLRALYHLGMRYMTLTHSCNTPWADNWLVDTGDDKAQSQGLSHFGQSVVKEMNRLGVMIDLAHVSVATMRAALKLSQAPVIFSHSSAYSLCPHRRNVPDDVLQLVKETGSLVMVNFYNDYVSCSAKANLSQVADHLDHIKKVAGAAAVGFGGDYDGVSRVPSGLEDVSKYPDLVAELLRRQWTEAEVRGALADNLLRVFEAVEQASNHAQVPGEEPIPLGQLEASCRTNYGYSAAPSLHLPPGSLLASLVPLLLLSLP
As to the kind of experiment: Relative t1/2 hydrolysis to meropenem by partially purified porcine renal DHP-1. Format: functional.

Experiment [2] deals with Salmonella typhimurium. As to the kind of experiment: In vitro antibacterial activity against Salmonella Typhimurium. Format: functional, Salmonella enterica subsp. enterica serovar Typhimurium.
Experiment [3] deals with Escherichia coli. As to the kind of experiment: In vitro antibacterial activity against Escherichia coli 1507E. Format: functional.
In experiment [4] the test system is Pseudomonas aeruginosa. As to the kind of experiment: In vitro antibacterial activity against Pseudomonas aeruginosa 1771M. Format: functional.
Experiment [5] deals with Pseudomonas aeruginosa. As to the kind of experiment: In vitro antibacterial activity against Pseudomonas aeruginosa 9027. Format: functional.
Experiment [6] relates to Streptococcus pyogenes. As to the kind of experiment: In vitro antibacterial activity against Streptococcus pyogenes 308A. Format: functional.
Experiment [7] has as its system Staphylococcus aureus. Description: In vitro antibacterial activity against Staphylococcus aureus 285. In kind it is functional.
Experiment [8] has as its system Escherichia coli. Description: In vitro antibacterial activity against Escherichia coli 078. In kind it is functional.
Experiment [9] has as its system Staphylococcus aureus. Description: In vitro antibacterial activity against Staphylococcus aureus 503. In kind it is functional.
For experiment [10], the system named is Staphylococcus aureus. As to the kind of experiment: In vitro antibacterial activity against Staphylococcus aureus SG511. Format: functional.
The subject of experiment [11] is Klebsiella aerogenes. As to the kind of experiment: In vitro antibacterial activity against Klebsiella aerogenes 1522E. In kind it is functional.
Experiment [12] relates to Enterobacter cloacae. Description: In vitro antibacterial activity against Enterobacter cloacae 1321E. Format: functional.
For experiment [13], the system named is Pseudomonas aeruginosa. As to the kind of experiment: In vitro antibacterial activity against Pseudomonas aeruginosa 1592E. Format: functional.
The mark [14] stands for this setting: Salmonella enterica, read-out: MIC.
The mark [15] stands for this setting: Escherichia coli, read-out: MIC.
Setting [16] is: Pseudomonas aeruginosa, read-out: MIC.
Setting [17] is: Streptococcus pyogenes, read-out: MIC.
The mark [18] stands for this setting: Staphylococcus aureus, read-out: MIC.
The mark [19] stands for this setting: Klebsiella aerogenes, read-out: MIC.
[20] abbreviates: Enterobacter cloacae, read-out: MIC.

Molecule `C[C@@H](O)[C@H]1C(=O)N2C(C(=O)O)=C(S[C@@H]3CN[C@H](C4CC(CO)=NO4)C3)[C@H](C)[C@H]12` (stereo in doubt; form 1) [listing 1 of 2 here] gave a Relative t1/2 in experiment [1] of 1.09.

As to `C[C@@H](O)[C@H]1C(=O)N2C(C(=O)O)=C(S[C@@H]3CN[C@H](C4CC(CO)=NO4)C3)[C@H](C)[C@H]12` (stereo in doubt; form 1) [listing 2 of 2 here], the MIC in experiment [2] (setting [14]) was 0.098 µg/mL (≈ 0.238 µM); in experiment [3] (setting [15]) it was 0.049 µg/mL (≈ 0.119 µM); in experiment [4] (setting [16]), 0.098 µg/mL (≈ 0.238 µM); in [5] (setting [16]), 0.391 µg/mL (≈ 0.95 µM); in experiment [6] (setting [17]), 0.013 µg/mL (≈ 0.0316 µM); in [7] (setting [18]) it was 0.098 µg/mL (≈ 0.238 µM). Also, the MIC in experiment [8] (setting [15]) worked out at 0.049 µg/mL (≈ 0.119 µM); in [9] (setting [18]), 0.049 µg/mL (≈ 0.119 µM); in [10] (setting [18]), 0.098 µg/mL (≈ 0.238 µM); in experiment [11] (setting [19]) it was 0.098 µg/mL (≈ 0.238 µM); in [12] (setting [20]), 0.049 µg/mL (≈ 0.119 µM); in experiment [13] (setting [16]), 0.391 µg/mL (≈ 0.95 µM).

As to `C[C@@H](O)[C@H]1C(=O)N2C(C(=O)O)=C(S[C@@H]3CN[C@H](c4cc(CO)on4)C3)[C@H](C)[C@H]12`, the MIC amounted to 0.049 µg/mL (≈ 0.12 µM) in experiment [2] (setting [14]); 0.025 µg/mL (≈ 0.0611 µM) in experiment [3] (setting [15]); 0.391 µg/mL (≈ 0.955 µM) in experiment [4] (setting [16]); 1.56 µg/mL (≈ 3.82 µM) in [5]; 0.013 µg/mL (≈ 0.0317 µM) in [6] (setting [17]); 0.098 µg/mL (≈ 0.239 µM) in [7] (setting [18]). For the same molecule, the MIC in experiment [8] (setting [15]) worked out at 0.025 µg/mL (≈ 0.0611 µM); in experiment [9] (setting [18]), 0.049 µg/mL (≈ 0.12 µM); in experiment [10] (setting [18]), 0.098 µg/mL (≈ 0.239 µM); in [11] (setting [19]), 0.049 µg/mL (≈ 0.12 µM); in [12] (setting [20]) it was 0.025 µg/mL (≈ 0.0611 µM); in experiment [13] (setting [16]), 1.56 µg/mL (≈ 3.82 µM). This molecule also returned a Relative t1/2 in [1] of 0.8.

Turning to `C[C@@H](O)[C@H]1C(=O)N2C(C(=O)O)=C(S[C@@H]3CN[C@H](C(=O)N(C)C)C3)[C@H](C)[C@H]12` [MEROPENEM], the minimal inhibitory concentration (MIC) came out at 0.049 µg/mL (≈ 0.128 µM) in [2] (setting [14]); 0.025 µg/mL (≈ 0.0652 µM) in experiment [3] (setting [15]); 0.049 µg/mL (≈ 0.128 µM) in experiment [4] (setting [16]); 0.195 µg/mL (≈ 0.509 µM) in experiment [5] (setting [16]); 0.013 µg/mL (≈ 0.0339 µM) in experiment [6] (setting [17]); 0.195 µg/mL (≈ 0.509 µM) in experiment [7] (setting [18]). Also, the MIC was 0.025 µg/mL (≈ 0.0652 µM) in experiment [8] (setting [15]); 0.098 µg/mL (≈ 0.256 µM) in experiment [9] (setting [18]); 0.195 µg/mL (≈ 0.509 µM) in experiment [10] (setting [18]); 0.049 µg/mL (≈ 0.128 µM) in experiment [11] (setting [19]); 0.025 µg/mL (≈ 0.0652 µM) in [12] (setting [20]); 0.195 µg/mL (≈ 0.509 µM) in experiment [13] (setting [16]). The Relative t1/2 in experiment [1] came to 1.

In the case of `C[C@@H](O)[C@H]1C(=O)N2C(C(=O)O)=C(S[C@@H]3CN[C@H](C4CC[N+](C)(CC(N)=O)O4)C3)[C@H](C)[C@H]12.[Cl-]` (some centres undefined), the minimal inhibitory concentration (MIC) in [2] (setting [14]) turned out to be 0.195 µg/mL; in [3] (setting [15]) it was 0.049 µg/mL; in [4] (setting [16]) it was 0.195 µg/mL; in [5] (setting [16]) it was 0.195 µg/mL; in experiment [6] (setting [17]), 0.007 µg/mL; in [7] (setting [18]), 0.098 µg/mL. For the same molecule, the MIC came out at 0.098 µg/mL in experiment [8] (setting [15]); 0.025 µg/mL in experiment [9] (setting [18]); 0.049 µg/mL in experiment [10] (setting [18]); 0.195 µg/mL in experiment [11] (setting [19]); 0.049 µg/mL in experiment [12] (setting [20]); 0.391 µg/mL in experiment [13] (setting [16]). The same molecule gave a Relative t1/2 in experiment [1] of 1.66.

With `C[C@@H](O)[C@H]1C(=O)N2C(C(=O)O)=C(S[C@@H]3CN[C@H](C4CC[N+](C)(C)O4)C3)[C@H](C)[C@H]12.[Cl-]` (some centres undefined), the MIC in [2] (setting [14]) turned out to be 0.195 µg/mL; in experiment [3] (setting [15]), 0.098 µg/mL; in experiment [4] (setting [16]), 0.195 µg/mL; in experiment [5] (setting [16]), 0.391 µg/mL; in experiment [6] (setting [17]), 0.013 µg/mL; in experiment [7] (setting [18]), 0.195 µg/mL. Moreover, the minimal inhibitory concentration (MIC) turned out to be 0.195 µg/mL in [8] (setting [15]); 0.049 µg/mL in [9] (setting [18]); 0.098 µg/mL in experiment [10] (setting [18]); 0.195 µg/mL in [11] (setting [19]); 0.098 µg/mL in [12] (setting [20]); 0.391 µg/mL in experiment [13] (setting [16]). In addition, the Relative t1/2 in [1] was found to be 1.5.

For the molecule `C[C@@H](O)[C@H]1C(=O)N2C(C(=O)O)=C(S[C@@H]3CN[C@H](C4CCN(C)O4)C3)[C@H](C)[C@H]12` (some centres undefined), the minimum inhibitory concentration (MIC) is 0.098 µg/mL (≈ 0.247 µM) in experiment [2] (setting [14]); 0.049 µg/mL (≈ 0.123 µM) in [3] (setting [15]); 0.195 µg/mL (≈ 0.491 µM) in experiment [4] (setting [16]); 0.391 µg/mL (≈ 0.984 µM) in experiment [5] (setting [16]); 0.007 µg/mL (≈ 0.0176 µM) in [6] (setting [17]); 0.098 µg/mL (≈ 0.247 µM) in experiment [7] (setting [18]). For the same molecule, the MIC in experiment [8] (setting [15]) was found to be 0.098 µg/mL (≈ 0.247 µM); in experiment [9] (setting [18]), 0.049 µg/mL (≈ 0.123 µM); in experiment [10] (setting [18]), 0.098 µg/mL (≈ 0.247 µM); in experiment [11] (setting [19]), 0.098 µg/mL (≈ 0.247 µM); in [12] (setting [20]) it was 0.025 µg/mL (≈ 0.0629 µM); in [13] (setting [16]), 0.391 µg/mL (≈ 0.984 µM). For the same molecule, the Relative t1/2 in experiment [1] is 1.27.

In the case of `C[C@@H](O)[C@H]1C(=O)N2C(C(=O)O)=C(S[C@@H]3CN[C@H](C4CC(CO)=NO4)C3)[C@H](C)[C@H]12` (stereo in doubt; form 2) [listing 1 of 2 here], the MIC in experiment [2] turned out to be 0.049 µg/mL (≈ 0.119 µM); in experiment [3], 0.025 µg/mL (≈ 0.0608 µM); in experiment [4] it was 0.195 µg/mL (≈ 0.474 µM); in experiment [5] it was 0.391 µg/mL (≈ 0.95 µM); in experiment [6], 0.013 µg/mL (≈ 0.0316 µM); in [7], 0.098 µg/mL (≈ 0.238 µM). The MIC in experiment [8] is 0.025 µg/mL (≈ 0.0608 µM); in [9], 0.049 µg/mL (≈ 0.119 µM); in [10] it was 0.098 µg/mL (≈ 0.238 µM); in [11], 0.049 µg/mL (≈ 0.119 µM); in experiment [12] it was 0.025 µg/mL (≈ 0.0608 µM); in experiment [13] it was 0.391 µg/mL (≈ 0.95 µM).

As for `CCOC(=O)C1=NOC([C@@H]2C[C@H](SC3=C(C(=O)O)N4C(=O)[C@H]([C@@H](C)O)[C@H]4[C@H]3C)CN2)C1` (some centres undefined), the MIC in experiment [2] (setting [14]) was determined as 0.049 µg/mL (≈ 0.108 µM); in experiment [3] (setting [15]), 0.013 µg/mL (≈ 0.0287 µM); in experiment [4] (setting [16]), 0.391 µg/mL (≈ 0.862 µM); in [5] (setting [16]), 0.781 µg/mL (≈ 1.72 µM); in experiment [6] (setting [17]) it was 0.025 µg/mL (≈ 0.0551 µM); in experiment [7] (setting [18]), 0.391 µg/mL (≈ 0.862 µM). The MIC in [8] (setting [15]) came out at 0.013 µg/mL (≈ 0.0287 µM); in [9] (setting [18]), 0.098 µg/mL (≈ 0.216 µM); in [10] (setting [18]) it was 0.195 µg/mL (≈ 0.43 µM); in [11] (setting [19]), 0.049 µg/mL (≈ 0.108 µM); in experiment [12] (setting [20]), 0.025 µg/mL (≈ 0.0551 µM); in experiment [13] (setting [16]), 0.781 µg/mL (≈ 1.72 µM). In experiment [1], this molecule registered a Relative t1/2 of 0.94.

The molecule `C[C@@H](O)[C@H]1C(=O)N2C(C(=O)O)=C(S[C@@H]3CN[C@H](C4CC(CO)=NO4)C3)[C@H](C)[C@H]12` (stereo in doubt; form 2) [listing 2 of 2 here] registered a Relative t1/2 in [1] of 0.78.
